The text below walks through data of patent US20240287089A1, “Preparation and Uses of 7-Azaindenoisoquinolines” (Purdue Research Foundation, priority 0001, published 2024).

Structures are written as SMILES.

In one assay the test system is CA-46 cells. The experiment in a line: MTS single-dosage cell viability assay. The format is cell-based. The settings on record: CA-46, 250 nM. The text has this: (§1) Single-Dosage Cell Viability Assay in CA-46 and Raji Cells. CA-46 and Raji are both Myc-dependent and -overexpressing non-Hodgkin's lymphoma cell lines. Both cell lines overexpress Myc due to a translocation that inserts an IgH enhancer upstream to the Myc gene. Whereas CA-46's translocation eliminates the G-quadruplex-forming region in one allele, Raji's translocation preserves the G-quadruplex-forming regions in both alleles. Therefore, Raji would be more sensitive to G-quadruplex-mediated Myc inhibition than CA-46, which may be reflected in lower IC50 values for Raji than CA-46. To evaluate cell line selectivity, MTS single-dosage assays were conducted to compare the antiproliferative effects of 7-aza-8,9-methylenedioxyindenoisoquinolines on CA-46 and Raji cells at 250 nM drug concentration (FIG. 8). Average % viability values of CA-46 and Raji cells for each drug were presented in bar plots side-by-side.
(§2) MTS Cell Viability Single-dosage Assay. Drug solutions for the MTS single dosage assays were made from DMSO stocks by dilutions in 1×PBS. To set up treatments, drug solutions were plated in triplicates to a 96-well tissue culture plate and added with media containing CA46 or Raji 2000 cells/well. […] Cells were quantified the same way as in the IC50 assays. To obtain %-viability, A490 values were subtracted by blank, normalized to 100%-viability control, and averaged. […]

The test system of the next assay is Raji cells. As to the kind of experiment: MTS single-dosage cell viability assay. The format is cell-based. The settings on record: 250 nM.
From the text: as §1, §2

As to `COc1cc2c3c(n(CCCN4CCOCC4)c(=O)c2cc1OC)-c1nc2c(cc1C3=O)OCO2` [G101, 2,3-Dimethoxy-6-(3-morpholinopropyl)-5H-[1,3]dioxolo[4″,5″:5′,6′]pyrido[3′,2′:4,5]cyclopenta[1,2-c]isoquinoline-5,12(6H)-dione], the “growth inhibition (% viability)” value with CA-46 cells and in the assay with Raji cells was “did not show growth inhibition” each time.
